Measured values published in patent US10899754B2, “Modulators of indoleamine 2,3-dioxygenase” (GLAXOSMITHKLINE INTELLECTUAL PROPERTY DEVELOPMENT LIMITED, priority 2016, dated 2021).

Experiments:
[1] = system: human peripheral blood mononuclear cells (PBMC); assay: PBMC cytotoxicity assay (CellTiter-Glo); format: cell-based; conditions: 2 days, pCC50
Procedure: (§1) Compounds of the present invention were tested via high-throughput cellular assays utilizing detection of kynurenine via mass spectrometry and cytotoxicity as end-points. For the mass spectrometry and cytotoxicity assays, human peripheral blood mononuclear cells (PBMC) (PB003F; AllCells®, Alameda, Calif.) were stimulated with human interferon-γ (IFN-γ) (Sigma-Aldrich Corporation, St. Louis, Mo.) and lipopolysaccharide from Salmonella minnesota (LPS) (Invivogen, San Diego, Calif.) to induce the expression of indoleamine 2, 3-dioxygenase (IDO1). Compounds with IDO1 inhibitory properties decreased the amount of kynurenine produced by the cells via the tryptophan catabolic pathway. Cellular toxicity due to the effect of compound treatment was measured using CellTiter-Glo® reagent (CTG) (Promega Corporation, Madison, Wis.), which is based on luminescent detection of ATP, an indicator of metabolically active cells.
(§2) In preparation for the assays, test compounds were serially diluted 3-fold in DMSO from a typical top concentration of 1 mM or 5 mM and plated at 0.5 μL in 384-well, polystyrene, clear bottom, tissue culture treated plates with lids (Greiner Bio-One, Kremsmünster, Austria) to generate 11-point dose response curves. Low control wells (0% kynurenine or 100% cytotoxicity) contained either 0.5 μL of DMSO in the presence of unstimulated (−IFN-γ/−LPS) PBMCs for the mass spectrometry assay or 0.5 μL of DMSO in the absence of cells for the cytotoxicity assay, and high control wells (100% kynurenine or 0% cytotoxicity) contained 0.5 μL of DMSO in the presence of stimulated (+IFN-γ/+LPS) PBMCs for both the mass spectrometry and cytotoxicity assays.
(§3) Frozen stocks of PBMCs were washed and recovered in RPMI 1640 medium (Thermo Fisher Scientific, Inc., Waltham, Mass.) supplemented with 10% v/v heat-inactivated fetal bovine serum (FBS) (Thermo Fisher Scientific, Inc., Waltham, Mass.), and 1× penicillin-streptomycin antibiotic solution (Thermo Fisher Scientific, Inc., Waltham, Mass.). The cells were diluted to 1,000,000 cells/mL in the supplemented RPMI 1640 medium. 50 μL of either the cell suspension, for the mass spectrometry assay, or medium alone, for the cytotoxicity assay, were added to the low control wells, on the previously prepared 384-well compound plates, resulting in 50,000 cells/well or 0 cells/well respectively. IFN-γ and LPS were added to the remaining cell suspension at final concentrations of 100 ng/ml and 50 ng/ml respectively, and 50 μL of the stimulated cells were added to all remaining wells on the 384-well compound plates. The plates, with lids, were then placed in a 37° C., 5% CO2 humidified incubator for 2 days.
(§4) Following incubation, the 384-well plates were removed from the incubator and allowed to equilibrate to room temperature for 30 minutes. For the cytotoxicity assay, CellTiter-Glo® was prepared according to the manufacturer's instructions, and 40 μL were added to each plate well. After a twenty minute incubation at room temperature, luminescence was read on an EnVision® Multilabel Reader (PerkinElmer Inc., Waltham, Mass.). For the mass spectrometry assay, 10 μL of supernatant from each well of the compound-treated plates were added to 40 μL of acetonitrile, containing 10 μM of an internal standard for normalization, in 384-well, polypropylene, V-bottom plates (Greiner Bio-One, Kremsmünster, Austria) to extract the organic analytes. Following centrifugation at 2000 rpm for 10 minutes, 10 μL from each well of the acetonitrile extraction plates were added to 90 μL of sterile, distilled H2O in 384-well, polypropylene, V-bottom plates for analysis of kynurenine and the internal standard on the RapidFire 300 (Agilent Technologies, Santa Clara, Calif.) and 4000 QTRAP MS (SCIEX, Framingham, Mass.). MS data were integrated using Agilent Technologies' RapidFire Integrator software, and data were normalized for analysis as a ratio of kynurenine to the internal standard. […]

[2] = target: indoleamine 2, 3-dioxygenase (IDO1) (Homo sapiens, UniProt P14902); assay: IDO1 PBMC RapidFire MS assay (kynurenine detection by mass spectrometry); format: cell-based; set-up: to induce the expression of indoleamine 2, 3-dioxygenase (IDO1); host or cells: human PBMC stimulated with IFN-gamma and LPS; conditions: human PBMC stimulated with IFN-γ and LPS, 2 days, pIC50, read-out: PBMC PXC50 (converted)
Procedure: IDO1 PBMC RapidFire MS Assay
as §1, §2, §3, §4

Chain of indoleamine 2, 3-dioxygenase (IDO1) (P14902 whole entry): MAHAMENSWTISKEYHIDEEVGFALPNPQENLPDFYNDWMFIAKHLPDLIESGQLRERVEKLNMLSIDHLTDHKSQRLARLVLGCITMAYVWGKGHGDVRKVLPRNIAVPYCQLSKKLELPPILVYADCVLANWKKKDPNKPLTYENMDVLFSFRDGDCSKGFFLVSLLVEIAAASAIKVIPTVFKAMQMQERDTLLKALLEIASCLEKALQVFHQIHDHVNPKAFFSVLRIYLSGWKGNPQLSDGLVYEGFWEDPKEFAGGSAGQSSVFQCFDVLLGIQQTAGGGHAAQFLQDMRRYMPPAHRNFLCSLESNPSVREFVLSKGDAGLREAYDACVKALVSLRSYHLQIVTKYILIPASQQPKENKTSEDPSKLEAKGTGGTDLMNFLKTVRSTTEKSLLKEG

With `CC(C)CN(c1ccc([C@H](C)CC(=O)O)cc1Nc1ncc(C#N)cn1)C1CCOCC1` [example 254, (3R)-3-{3-[(5-cyanopyrimidin-2-yl)amino]-4-[(2-methylpropyl)(oxan-4-yl)amino]phenyl}butanoic acid] the “PBMC TOX PXC50” value [1] was less than 5 and the IC50 [2] was 126 nM.

`CC(C)CN(c1ccc([C@H](C)CC(=O)O)cc1Nc1ccc(C(F)(F)F)cn1)C1CCOCC1` [Example 27, (R)-3-(4-(isobutyl(tetrahydro-2H-pyran-4-yl)amino)-3-((5-(trifluoromethyl)pyridin-2-yl)amino)phenyl)butanoic Acid] was tested, and the “PBMC TOX PXC50” value [1] was less than 5 and the IC50 [2] was 3.98 nM.

With `CC(C)CN(CC(C)C)c1ccc(C(C)CC(=O)O)cc1Nc1nnn(C)n1` (centres unmarked) [example 251, 3-{4-[bis(2-methylpropyl)amino]-3-[(2-methyl-2H-1,2,3,4-tetrazol-5-yl)amino]phenyl}butanoic acid] the “PBMC TOX PXC50” value [1] was less than 5 and the IC50 [2] was 2000 nM.

In the case of `COCc1ccc(Nc2cc([C@H](C)CC(=O)O)ccc2N(CC(C)C)[C@H]2CC[C@@H](OC)CC2)nc1` [Example 60, (R)-3-(4-(isobutyl((1s,4S)-4-methoxycyclohexyl)amino)-3-((5-(methoxymethyl)pyridin-2-yl)amino)phenyl)butanoic Acid], the “PBMC TOX PXC50” value [1] is reported as less than 5 and the IC50 [2] is reported as 10 nM.

`COC(=O)c1c[nH]c(Nc2cc([C@H](C)CC(=O)O)ccc2N(CC(C)C)[C@H]2CC[C@@H](OC)CC2)n1` [Example 46, (R)-3-(4-(isobutyl((1s,4s)-4-methoxycyclohexyl)amino)-3-((4-(methoxycarbonyl)-1H-imidazol-2-yl)amino)phenyl)butanoic Acid] was tested, and the “PBMC TOX PXC50” value [1] was 5.2 and the IC50 [2] was 1.58 nM.

In the case of `COC(=O)c1c[nH]c(Nc2cc([C@H](C)CC(=O)O)ccc2N(CC(C)C)C2CCCCC2)n1` [Example 77, (R)-3-(4-(cyclohexyl(isobutyl)amino)-3-((4-(methoxycarbonyl)-1H-imidazol-2-yl)amino)phenyl)butanoic Acid], the “PBMC TOX PXC50” value [1] is reported as less than 5 and the IC50 [2] is reported as 1.58 nM.

For `CC(C)CN(c1ccc(C(C)CC(=O)O)cc1Nc1nncs1)C1CCCCC1` (centres unmarked) [example 235, 3-{4-[cyclohexyl(2-methylpropyl)amino]-3-[(1,3,4-thiadiazol-2-yl)amino]phenyl}butanoic acid], the “PBMC TOX PXC50” value [1] was less than 5 and the IC50 [2] was 20 nM.

In the case of `CC(C)CN(c1ccc(-c2ccncc2C(=O)O)cc1Nc1nc(C(F)(F)F)ns1)C1CCOCC1` [example 267, 4-{4-[(2-methylpropyl)(oxan-4-yl)amino]-3-{[3-(trifluoromethyl)-1,2,4-thiadiazol-5-yl]amino}phenyl}pyridine-3-carboxylic acid], the “PBMC TOX PXC50” value [1] is reported as less than 5 and the IC50 [2] is reported as 39.8 nM.

For `CC(C)CN(CC(C)C)c1ccc(C(C)CC(=O)O)cc1Nc1nnnn1C` (centres unmarked) [example 252, 3-{4-[bis(2-methylpropyl)amino]-3-[(1-methyl-1H-1,2,3,4-tetrazol-5-yl)amino]phenyl}butanoic acid], the “PBMC TOX PXC50” value [1] was less than 5 and the IC50 [2] was 3980 nM.

`CO[C@H]1CC[C@H](N(CC(C)C)c2ccc([C@H](C)CC(=O)O)cc2Nc2ccc(Cl)cn2)CC1` [Example 55, (R)-3-(3-((5-chloropyridin-2-yl)amino)-4-(isobutyl((1r,4R)-4-methoxycyclohexyl)amino)phenyl)butanoic Acid] was tested, and the “PBMC TOX PXC50” value [1] was less than 5 and the IC50 [2] was 3.16 nM.

For `CO[C@H]1CC[C@H](N(CC(C)C)c2ccc([C@H](C)CC(=O)O)cc2Nc2n[nH]c(C#N)n2)CC1` (racemic) [example 222, (3RS)-3-{3-[(5-cyano-1H-1,2,4-triazol-3-yl)amino]-4-[(2-methylpropyl)[(1rs&,4rs&)-4-methoxycyclohexyl]ami-no]phenyl}butanoic acid], the “PBMC TOX PXC50” value [1] was less than 5 and the IC50 [2] was 200 nM.

For `CC(C)CN(c1cc(F)c([C@H](C)CC(=O)O)cc1Nc1ccc(Cl)cn1)C1CCOCC1` [Example 36, (R)-3-(5-((5-chloropyridin-2-yl)amino)-2-fluoro-4-(isobutyl(tetrahydro-2H-pyran-4-yl)amino)phenyl)butanoic Acid], the “PBMC TOX PXC50” value [1] was less than 5 and the IC50 [2] was 0.631 nM.

With `CC(C)CN(c1ccc([C@H](C)CC(=O)O)cc1Nc1ccc(C#N)nn1)C1CCOCC1` [Example 24, (R)-3-(3-((6-cyanopyridazin-3-yl)amino)-4-(isobutyl(tetrahydro-2H-pyran-4-yl)amino)phenyl)butanoic Acid] the “PBMC TOX PXC50” value [1] was less than 5 and the IC50 [2] was 2.51 nM.

With `CC(C)CN(c1ccc([C@H](C)CC(=O)O)cc1Nc1n[nH]c(C(N)=O)n1)C1CCOCC1` [example 227, (3R)-3-{3-[(5-carbamoyl-1H-1,2,4-triazol-3-yl)amino]-4-[(2-methylpropyl)(oxan-4-yl)amino]phenyl}butanoic acid] the “PBMC TOX PXC50” value [1] was less than 5 and the IC50 [2] was 501 nM.

With `CNC(=O)c1nnc(Nc2cc(C(C)CC(=O)O)ccc2N(CC(C)C)C2CCCCC2)s1` (centres unmarked) [Example 79] the “PBMC TOX PXC50” value [1] was less than 5 and the IC50 [2] was 5.01 nM.

In the case of `CC(C)CN(c1ccc([C@H](C)CC(=O)O)cc1Nc1ccc(C(N)=O)nn1)C1CCOCC1` [example 253, (3R)-3-{3-[(6-carbamoylpyridazin-3-yl)amino]-4-[(2-methylpropyl)(oxan-4-yl)amino]phenyl}butanoic acid], the “PBMC TOX PXC50” value [1] is reported as less than 5 and the IC50 [2] is reported as 316 nM.

For `CC(C)CN(c1ccc([C@H](C)CC(=O)O)cc1Nc1ccc(C(N)=O)cn1)C1CCOCC1` [example 240, (3R)-3-{3-[(5-carbamoylpyridin-2-yl)amino]-4-[(2-methylpropyl)(oxan-4-yl)amino]phenyl}butanoic acid], the “PBMC TOX PXC50” value [1] was less than 5 and the IC50 [2] was 2510 nM.

`CO[C@H]1CC[C@@H](N(CC(C)C)c2ccc([C@H](C)CC(=O)O)cc2Nc2nc(C(F)(F)F)c[nH]2)CC1` [Example 62, (R)-3-(4-(isobutyl((cis)-4-methoxycyclohexyl)amino)-3-((4-(trifluoromethyl)-1H-imidazol-2-yl)amino)phenyl)butanoic Acid] was tested, and the “PBMC TOX PXC50” value [1] was less than 5 and the IC50 [2] was 3.98 nM.

With `CO[C@H]1CC[C@H](N(CC(C)C)c2ccc([C@H](C)CC(=O)O)cc2Nc2n[nH]c(C(N)=O)n2)CC1` (racemic) [example 223, (3RS)-3-{3-[(5-carbamoyl-1H-1,2,4-triazol-3-yl)amino]-4-[(2-methylpropyl)[(1rs&,4rs&)-4-methoxycyclohexyl]ami-no]phenyl}butanoic acid] the “PBMC TOX PXC50” value [1] was less than 5 and the IC50 [2] was 501 nM.

For `CC(C)CN(c1c(F)cc([C@H](C)CC(=O)O)cc1Nc1ccc(Cl)cn1)C1CCOCC1` [Example 35, (R)-3-(3-((5-chloropyridin-2-yl)amino)-5-fluoro-4-(isobutyl(tetrahydro-2H-pyran-4-yl)amino)phenyl)butanoic Acid], the “PBMC TOX PXC50” value [1] was less than 5 and the IC50 [2] was 0.501 nM.

In the case of `Cc1nc(Nc2cc([C@H](C)CC(=O)O)ccc2N(CC(C)C)C2CCOCC2)ccc1Cl` [example 260, (3R)-3-{3-[(5-chloro-6-methylpyridin-2-yl)amino]-4-[(2-methylpropyl)(oxan-4-yl)amino]phenyl}butanoic acid], the “PBMC TOX PXC50” value [1] is reported as less than 5 and the IC50 [2] is reported as 39.8 nM.

With `Cc1ccc(CC(=O)Nc2cc(-c3ccccc3C(=O)O)ccc2N(CC(C)C)C23CC(C2)C3)cc1` [example 268, 4′-({bicyclo[1.1.1]pentan-1-yl}(2-methylpropyl)amino)-3′-[2-(4-methylphenyl)acetamido]-[1,1′-biphenyl]-2-carboxylic acid] the “PBMC TOX PXC50” value [1] was less than 5 and the IC50 [2] was 2000 nM.
